Where a name gives a salt, the structure may show the parent alone.
Key:
Withdrawal Symptoms = experiment: Case 13: withdrawal symptoms on reducing other drugs; format: in vivo, human
Method: Case 13: Withdrawal Symptoms A office worker had been on 10 mg Paxil®, 2 mg Rohypnol® and 2 mg Depas® before sleeping. Although they had tried to reduce the doses of the drugs, emergence of withdrawal syndrome had hampered the reduction of the drugs. They started to take Cephadol®, 25 mg after dinner and 50 mg before sleeping. It made them able to be free from the other drugs in two weeks.

vertebral artery = settings: dog experiments; cited from earlier work
Fibromyalgia [1] = experiment: Case 17: fibromyalgia (3) patient; format: in vivo, human
Source text: […] Being unresponsive to prescribed medicines, they were instructed to do gentle stretching exercise and massage, as well as thermotherapy on affected areas. However, their arthralgia was so terrible that they could not perform stretching exercise or other directions. They had pain at all the 18 tender points of the whole body, a jaw abnormality, and a strong pain at both knee joints, which made their unable to go to hospital on foot.

[2] = tested on: Panic Disorder and Multiple Personality Disorder; experiment: Case 10: panic disorder and multiple personality disorder patient; format: in vivo, human
Source text: Case 10: Panic Disorder and Multiple Personality Disorder
Patient was a single person, who had been treated at several psychiatric hospitals. […] They report that the medicine is best to calm their mind, and easier to take than any other drugs that they have ever taken.

Stiff Neck = experiment: Case 14: seven subjects having stiff neck; format: in vivo, human; settings: two 25 mg tablets two times a day, after two days, all seven subjects
Method: Case 14: Stiff Neck Stiff neck is often observed as a subjective symptom, and is one of the most serious complaints in the daily life. Seven subjects having stiff neck were given two 25 mg tablets of Cephadol® two times a day (after dinner and before sleeping).

Schizophrenia = experiment: Case 12: schizophrenia patient; format: in vivo, human; settings: 150 mg/day
Source text: A person had been diagnosed with schizophrenia and had received antipsychotic drugs. In spite of the treatment with newest antipsychotic drugs, the dullness of thinking, depression, and obesity of the patient were not improved.

[3] = tested on: manic state of bipolar I disorder; experiment: Case 3: manic-depressive illness patient; format: in vivo, human
Method: Case 3: Manic-Depressive Illness Patient was a person, who had continuously been in a manic state of bipolar I disorder for over one month. An antiepileptic drug, or 1,200 mg of Limas®, was ineffective. Antipsychotic drugs were not usable due to significant side effects. […] When they discontinued the administration of Cephadol®, the manic state appeared after 5 days.

Fibromyalgia [4] = experiment: Case 15: fibromyalgia (1) patient; format: in vivo, human
Method: They then visited the inventor's clinic. When the inventor started the treatment with 75 mg/day Cephadol®, systemic pain of the patient was improved in two days. […] As a result, they became able to perform usual household work, go outside, and further make a trip.

Alcoholism = experiment: Case 6: alcoholism patient; format: in vivo, human
Source text: Case 6: Alcoholism Patient was a office worker, who was drinking 1 to 2 liters of beer and 3 to 5 glasses of distilled spirit or whisky with water every day. They were drinking alcohol in daytime on Sundays, and suffering from a complication of liver dysfunction.

Bulimia = experiment: Case 7: bulimia (1) patient; format: in vivo, human; settings: 150 mg/day
Source text: Patient was a person, who had been suffering from bulimia. Antidepressant, antianxiety, and other drugs were all ineffective. […] The effect of Cephadol® appeared in about two days.

[5] = tested on: Behavioral and Psychological Symptoms of Dementia; experiment: Case 5: behavioral and psychological symptoms of dementia; format: in vivo, human; settings: 100 mg/day
Source text: Case 5: Effect on Behavioral and Psychological Symptoms of Dementia Patient was a person with dementia, who was irritable and easily excited, and had persecutory delusion.

[6] = 25 mg after dinner and 50 mg before sleeping

OC(CCCN1CCCCC1)(c1ccccc1)c1ccccc1 [Cephadol®, 1,1-diphenyl-4-piperidine-1-ylbuthan-1-ol monohydrochloride]
side effects (Withdrawal Symptoms; [6]): no side effects
time until free from the other drugs (Paxil, Rohypnol, Depas) (Withdrawal Symptoms; [6]): two
outcome after tapering Cephadol (Withdrawal Symptoms; dose reduced from 50 mg to 25 mg, and to 0 mg): discontinuation of all the drugs
blood flow of the vertebral artery (vertebral artery): increase the blood flow thereof
spasm of the vertebral artery (vertebral artery): remit the spasm of the vertebral artery
pain at both knee joints (Fibromyalgia [1]; 75 mg/day): improved the pain at both knee joints
systemic pain (Fibromyalgia [1]; 75 mg/day): eliminated the systemic pain
mobility of large joints (objective) (Fibromyalgia [1]; 125 mg/day): the mobility of large joints increased
pain at both knee joints (Fibromyalgia [1]; dosage increased to 125 mg/day): the pain at both knee joints also disappeared
pain at both knee joints (Fibromyalgia [1]; dosage reduced to 75 mg/day, on the next day): recurrence of the pain at both knee joints
pain at both knee joints (Fibromyalgia [1]; dose re-increased to 125 mg/day, on the next day): eliminated the pain at both knee joints
panic disorder ([2]; 75 mg/day for one week, then 150 mg/day): significant improvement of panic disorder
transformation of personality ([2]; 150 mg/day, previously 5 to 10 times a month): improved
antianxiety effect ([2]; 75-150 mg/day): strong antianxiety effect
stiff neck symptom (Stiff Neck): disappearance or a significant improvement of the symptom
appetite and body weight (Schizophrenia): reduced their appetite and body weight
side effects and relapse of schizophrenia (Schizophrenia): no side effects, nor relapse of schizophrenia
thinking speed and depression (Schizophrenia): improved their subjective and objective thinking speed and depression
effect on the disease (manic state) ([3]; 150 mg/day): significant amelioration of the disease
side effects ([3]; 150 mg/day): no side effects
time until the manic state appeared after discontinuation ([3]; after discontinuation of 150 mg/day): 5 days
systemic pain (Fibromyalgia [4]; 75 mg/day, in two days): improved
mobility of large joints (objective) (Fibromyalgia [4]; 150 mg/day): the mobility of large joints increased
pain at 18 tender points including low back pain (Fibromyalgia [4]; 150 mg/day): totally improved
arthralgia (Fibromyalgia [4]; 150 mg/day, increased one week later): complete elimination of arthralgia
overdrinking (Alcoholism; 150 mg/day continued for three months): without any emergence of overdrinking
side effects (Alcoholism; 150 mg/day for three months): without any side effects
impulse to drink alcohol (Alcoholism; 150 mg/day, on the next day): eliminated their impulse to drink alcohol
restlessness and anxiety (Alcoholism; 150 mg/day, on the next day): eliminated their restlessness and anxiety
side effects (Bulimia): no side effects
overeating (Bulimia; previously two to three times a day): significantly improved overeating
mental stability [5]: significantly improved mental stability
nuisance behaviors caused by the persecutory delusion [5]: prevented their nuisance behaviors to other people
side effects [5]: no side effects
